Patent publication US10301317B2, “Inhibitors of ERK and methods of use” (Kura Oncology, Inc., priority 2013, dated 2019)

Columns and labels:
A375 cells = experiment: Tumor cell line proliferation assay (CellTiter Glo), A375; assay type: cell-based; conditions: Homo sapiens, A-375, 96 h, read-out: A375 (V599E) Cell Proliferation IC50
[1] = tested on: phospho-p90 RSK (RSK1 Thr359/Ser363) in A375 (Braf V600E) cells; experiment: Phospho-p90 RSK ELISA using A375 (Braf V600E) cells; assay type: cell-based; conditions: Homo sapiens, A-375, 2 hours compound treatment, read-out: Cellular Phospho-p90RSK IC50

Row | IC50 (A375 cells) | IC50 [1] | SMILES
1 | ≤ 250 nM | ≤ 250 nM | Cc1cc(-c2n[nH]c3cc4c(cc23)CN([C@@H]2CN(CC(F)F)C[C@H]2c2ccccc2)C(=O)N4)ccn1 (mixture of isomers) [Example 362]
2 | > 1000 nM | ≤ 250 nM | Cc1cc(-c2n[nH]c3cc4c(cc23)CN([C@@H]2CN(CC#N)C[C@H]2c2ccccc2)C(=O)N4)ccn1 (mixture of isomers) [Example 366]
3 | – | ≤ 250 nM | Cc1ncc(-c2n[nH]c3cc4c(cc23)CN([C@@H]2CN(CC(F)(F)F)C[C@H]2c2ccccc2)C(=O)N4)cn1 [Example 349]
4 | – | > 1000 nM | Cn1nccc1-c1n[nH]c2cc3c(cc12)CN([C@@H]1CN(CC(F)(F)F)C[C@H]1c1ccccc1)C(=O)N3 [Example 350]
5 | – | 250 to 1000 nM | Nc1ncc(-c2n[nH]c3cc4c(cc23)CN([C@@H]2CN(CC(F)(F)F)C[C@H]2c2ccccc2)C(=O)N4)cn1 [Example 351]
6 | – | ≤ 250 nM | Cn1cc(-c2n[nH]c3cc4c(cc23)CN([C@@H]2CN(CC(F)(F)F)C[C@H]2c2ccccc2)C(=O)N4)cn1 [Example 352]
7 | – | > 1000 nM | CC(c1ccccc1)c1cc2cc3c(N4CCN(C)CC4)n[nH]c3cc2[nH]c1=O (stereo not drawn) [Example 358]
8 | – | 250 to 1000 nM | Cc1cc(-c2n[nH]c3cc4[nH]c(=O)c(C5CCCN(Cc6ccccc6)C5)cc4cc23)cc(C)n1 (stereo not drawn) [Example 360]
9 | – | > 1000 nM | Cc1cc(-c2n[nH]c3cc4c(cc23)CN([C@H]2CCCN(Cc3ccccc3)C2)C(=O)N4)cc(C)n1 [Example 363]
10 | – | > 1000 nM | COc1ncc(-c2n[nH]c3cc4c(cc23)CN([C@H]2CCCN(Cc3ccccc3)C2)C(=O)N4)cn1 [Example 365]
11 | – | ≤ 250 nM | COc1cc(-c2n[nH]c3cc4[nH]c(=O)c(C5CCCN(Cc6ccccc6)C5)cc4cc23)ccn1 (stereo not drawn) [Example 370]
12 | – | ≤ 250 nM | Cc1cc(-c2n[nH]c3cc4c(cc23)CN(Cc2ccccc2)C(=O)N4)ccn1 [Example 372]
13 | – | 250 to 1000 nM | Cc1ccc(-c2n[nH]c3cc4[nH]c(=O)c(C5CCCN(Cc6ccccc6)C5)cc4cc23)cn1 (stereo not drawn) [Example 373]
14 | – | > 1000 nM | Cc1cc(-c2n[nH]c3cc4c(cc23)CN([C@H]2CN(CC(F)F)C[C@@H]2c2ccccc2)C(=O)N4)ccn1 [Example 383]
15 | – | > 1000 nM | Cc1cc(-c2n[nH]c3cc4c(cc23)CN([C@H]2CN(CC(F)F)C[C@@H]2c2ccccc2)C(=O)N4)cc(C)n1 [Example 385]
16 | – | ≤ 250 nM | Cc1cc(-c2n[nH]c3cc4c(cc23)CN([C@@H]2CN(CC(F)F)C[C@H]2c2ccccc2)C(=O)N4)cc(C)n1 [Example 386]

Second part, the compound before the results:

Row | SMILES | IC50 (A375 cells) | IC50 [1]
17 | Cc1cc(-c2n[nH]c3cc4c(cc23)CN([C@@H]2CN(CC(F)(F)F)C[C@H]2c2cccs2)C(=O)N4)ccn1 (mixture of isomers) [Example 321] | 250 to 1000 nM | ≤ 250 nM
18 | Cc1cc(-c2n[nH]c3cc4c(cc23)CN([C@@H]2CN(C)C[C@H]2c2ccccc2)C(=O)N4)ccn1 (racemic) [Example 241] | ≤ 250 nM | ≤ 250 nM
19 | Cc1cc(-c2n[nH]c3cc4c(cc23)CN([C@@H]2CN(C)C[C@H]2c2ccccc2)C(=O)N4)cc(C)n1 (racemic) [Example 248] | ≤ 250 nM | ≤ 250 nM
20 | CCN1C[C@@H](N2Cc3cc4c(-c5ccnc(C)c5)n[nH]c4cc3NC2=O)[C@H](c2ccccc2)C1 (racemic) [Example 278] | ≤ 250 nM | ≤ 250 nM
21 | Cc1cc(-c2n[nH]c3cc4c(cc23)CN([C@@H]2CN(C(C)C)C[C@H]2c2ccccc2)C(=O)N4)ccn1 (racemic) [Example 279] | ≤ 250 nM | ≤ 250 nM
22 | Cc1cc(-c2n[nH]c3cc4c(cc23)CN([C@@H]2CN(C)C[C@H]2c2ccc(F)cc2)C(=O)N4)cc(C)n1 (racemic) [Example 305] | ≤ 250 nM | ≤ 250 nM
23 | Cc1cc(-c2n[nH]c3cc4c(cc23)CN([C@@H]2CN(C)C[C@H]2c2ccccc2F)C(=O)N4)cc(C)n1 (racemic) [Example 306] | ≤ 250 nM | ≤ 250 nM
24 | Cc1cc(-c2n[nH]c3cc4c(cc23)CN([C@@H]2CN(CC(F)(F)F)C[C@H]2c2ccccc2F)C(=O)N4)ccn1 (racemic) [Example 311] | 250 to 1000 nM | ≤ 250 nM
25 | COc1ccc(-c2n[nH]c3cc4c(cc23)CN(Cc2cc(F)cc(F)c2)C(=O)N4)cn1 [Example 92] | 250 to 1000 nM | ≤ 250 nM
26 | COc1ncc(-c2n[nH]c3cc4c(cc23)CN([C@@H]2CCCN(Cc3ccccc3)C2)C(=O)N4)cn1 [Example 104] | ≤ 250 nM | ≤ 250 nM
27 | [2H]C([2H])(c1ccccc1)N1CCC[C@@H](N2Cc3cc4c(-c5ccnc(C)c5)n[nH]c4cc3NC2=O)C1 [Example 148] | ≤ 250 nM | ≤ 250 nM
28 | Cc1cc(-c2n[nH]c3cc4c(cc23)CN(CCNCc2ccccc2)C(=O)N4)ccn1 [Example 149] | ≤ 250 nM | 250 to 1000 nM
29 | Cc1cc(-c2n[nH]c3cc4c(cc23)CN([C@@H]2CCCN(Cc3ccc(F)cc3)C2)C(=O)N4)ccn1 [Example 151] | ≤ 250 nM | > 1000 nM
30 | Cc1cc(-c2n[nH]c3cc4c(cc23)CN([C@@H]2CCN(CCc3ccccc3)C2)C(=O)N4)ccn1 [Example 153] | ≤ 250 nM | ≤ 250 nM
31 | Cc1cc(-c2n[nH]c3cc4c(cc23)CN([C@@H]2CCCN(C(C)c3ccccc3)C2)C(=O)N4)ccn1 (stereo partly drawn) [Example 154] | ≤ 250 nM | ≤ 250 nM
32 | Cc1cc(-c2n[nH]c3cc4c(cc23)CN([C@@H]2CCCN(Cc3cccc(Cl)c3)C2)C(=O)N4)ccn1 [Example 156] | ≤ 250 nM | ≤ 250 nM
33 | Cc1cc(-c2n[nH]c3cc4c(cc23)CN([C@@H]2CCCN(Cc3ccccc3Cl)C2)C(=O)N4)ccn1 [Example 158] | ≤ 250 nM | ≤ 250 nM
34 | COc1cccc(F)c1CN1CC[C@@H](N2Cc3cc4c(-c5ccnc(C)c5)n[nH]c4cc3NC2=O)C1 [Example 162] | ≤ 250 nM | ≤ 250 nM
35 | Cc1cc(-c2n[nH]c3cc4c(cc23)CN([C@@H]2CCCN(Cc3cccc(F)c3)C2)C(=O)N4)ccn1 [Example 184] | ≤ 250 nM | ≤ 250 nM
36 | Cc1cc(-c2n[nH]c3cc4[nH]c(=O)c(C5CCCN(Cc6cc(F)ccc6F)C5)cc4cc23)ccn1 (stereo not drawn) [Example 336] | – | ≤ 250 nM
37 | O=C1Nc2cc3[nH]nc(-c4ccnnc4)c3cc2CN1[C@@H]1CN(CC(F)(F)F)C[C@H]1c1ccccc1 [Example 340] | – | ≤ 250 nM
38 | O=C1Nc2cc3[nH]nc(-c4cccnc4)c3cc2CN1[C@@H]1CN(CC(F)(F)F)C[C@H]1c1ccccc1 [Example 341] | – | ≤ 250 nM
39 | O=C1Nc2cc3[nH]nc(-c4ccncc4)c3cc2CN1[C@@H]1CN(CC(F)(F)F)C[C@H]1c1ccccc1 [Example 342] | – | ≤ 250 nM
40 | Cc1cnccc1-c1n[nH]c2cc3[nH]c(=O)c(C(C)c4ccccc4)cc3cc12 (stereo not drawn) [Example 343] | – | > 1000 nM
41 | CC(c1ccccc1)c1cc2cc3c(-c4ccnc(N)c4)n[nH]c3cc2[nH]c1=O (stereo not drawn) [Example 344] | – | ≤ 250 nM
42 | CC(c1ccccc1)c1cc2cc3c(N4CCOCC4)n[nH]c3cc2[nH]c1=O (stereo not drawn) [Example 345] | – | ≤ 250 nM
43 | Cn1cc(-c2n[nH]c3cc4c(cc23)CN([C@@H]2CN(CC(F)(F)F)C[C@H]2c2ccccc2)C(=O)N4)ccc1=O [Example 346] | – | ≤ 250 nM
44 | CC(c1ccccc1)c1cc2cc3c(-c4ccc(=O)n(C)c4)n[nH]c3cc2[nH]c1=O (stereo not drawn) [Example 347] | – | ≤ 250 nM
45 | COc1ncc(-c2n[nH]c3cc4c(cc23)CN([C@@H]2CN(CC(F)(F)F)C[C@H]2c2ccccc2)C(=O)N4)cn1 [Example 348] | – | ≤ 250 nM
